Measured values published in patent publication US8778402B2, “Dry powder formulation comprising a corticosteroid and a beta-adrenergic for administration by inhalation” (Chiesi Farmaceutici S.p.A., priority 2012, dated 2014).

Assay: Particle size distribution of micronised BDP by laser diffraction (Malvern)
Assay type: physicochemical
Details: micronised beclometasone dipropionate; volume diameter of 10% of particles
Method: The size of the particles of the active is determined by measuring the characteristic equivalent sphere diameter, known as volume diameter, by laser diffraction. In the reported examples, the volume diameter has been determined using a Malvern apparatus. However, other equivalent apparatus may be used by the skilled person in the art.
The particle size was determined by laser diffraction using a Malvern apparatus. The parameter taken into consideration was the VD in microns of 10%, 50% and 90% of the particles expressed as d(v,0.1), d(v, 0.5) and d(v, 0.9), respectively, which correspond to the mass diameter assuming a size independent density for the particles. The span [d(v,0.9)−d(v,0.1)]/d(v,0.5) is also reported. The Specific Surface Area (SSA) was determined by BET nitrogen adsorption using a Coulter SA3100 apparatus as a mean of three determinations.

d (v, 0.1) | Compound
0.96 μm | CCC(=O)OCC(=O)[C@@]1(OC(=O)CC)[C@@H](C)C[C@H]2[C@@H]3CCC4=CC(=O)C=C[C@]4(C)[C@@]3(Cl)[C@@H](O)C[C@@]21C [Batch 2, beclometasone dipropionate]
0.91 μm | CCC(=O)OCC(=O)[C@@]1(OC(=O)CC)[C@@H](C)C[C@H]2[C@@H]3CCC4=CC(=O)C=C[C@]4(C)[C@@]3(Cl)[C@@H](O)C[C@@]21C [Batch 4, beclometasone dipropionate]
0.95 μm | CCC(=O)OCC(=O)[C@@]1(OC(=O)CC)[C@@H](C)C[C@H]2[C@@H]3CCC4=CC(=O)C=C[C@]4(C)[C@@]3(Cl)[C@@H](O)C[C@@]21C [Batch 3, beclometasone dipropionate]
0.86 μm | CCC(=O)OCC(=O)[C@@]1(OC(=O)CC)[C@@H](C)C[C@H]2[C@@H]3CCC4=CC(=O)C=C[C@]4(C)[C@@]3(Cl)[C@@H](O)C[C@@]21C [Batch 1, beclometasone dipropionate]
